Test system: Female C57B1/6 mice
Test: LPS induced sepsis in mice, UBE i.v.
Type: in vivo
Settings: i.v. within 1 hour after LPS 1.2 mg/mouse; 48 hours after LPS; 0.1 and 1.0 μg/kg; FIG. 20B
Method: Female C57B1/6 mice 7-8 weeks of age were injected i.p with LPS 1.2 mg/mouse. Thereafter (within 1 hour) UBE peptide as depicted by SEQ ID NO: 2 was injected i.v. (100 μl) at different doses; control group received PBS. Survival of mice was monitored. n=10 for control group, n=9 for each UBE-treated group.

For “SMPPIVRFDHPFLFIIFEEHTQSPLFVGKVVDPTHK (listed as Mus musculus) [UBE, 36-mer peptide corresponding to residues 378-413 of Mus musculus alpha-1-antitrypsin (serpin a1c)]”, the “reduction of LPS-induced mortality” value was 33%.
